{"source": "ChEMBL document CHEMBL5104136", "about": "“Discovery of benzodioxane analogues as lead candidates of AIMP2-DX2 inhibitors” (Bioorg Med Chem Lett, 2022)", "key": {"[1]": {"assay": "Cytotoxicity against human WI-26 cells expressing low levels of AIMP2-DX2 assessed as reduction in cell viability incubated for 96 hrs", "assay_type": "toxicity, cell-based", "conditions": "wi-26, 96 h"}, "[2]": {"test_system": "A549", "assay": "Cytotoxicity against human A549 cells expressing high levels of AIMP2-DX2 assessed as reduction in cell viability incubated for 96 hrs", "assay_type": "functional, cell-based", "conditions": "A549, 96 h"}, "[3]": {"test_system": "NCI-H460", "assay": "Cytotoxicity against human NCI-H460 cells expressing median levels of AIMP2-DX2 assessed as reduction in cell viability incubated for 96 hrs", "assay_type": "functional, cell-based", "conditions": "NCI-H460, 96 h"}, "[4]": {"target": "Cytochrome P450 2C9 (Homo sapiens, UniProt P11712)", "sequence (P11712 whole entry)": "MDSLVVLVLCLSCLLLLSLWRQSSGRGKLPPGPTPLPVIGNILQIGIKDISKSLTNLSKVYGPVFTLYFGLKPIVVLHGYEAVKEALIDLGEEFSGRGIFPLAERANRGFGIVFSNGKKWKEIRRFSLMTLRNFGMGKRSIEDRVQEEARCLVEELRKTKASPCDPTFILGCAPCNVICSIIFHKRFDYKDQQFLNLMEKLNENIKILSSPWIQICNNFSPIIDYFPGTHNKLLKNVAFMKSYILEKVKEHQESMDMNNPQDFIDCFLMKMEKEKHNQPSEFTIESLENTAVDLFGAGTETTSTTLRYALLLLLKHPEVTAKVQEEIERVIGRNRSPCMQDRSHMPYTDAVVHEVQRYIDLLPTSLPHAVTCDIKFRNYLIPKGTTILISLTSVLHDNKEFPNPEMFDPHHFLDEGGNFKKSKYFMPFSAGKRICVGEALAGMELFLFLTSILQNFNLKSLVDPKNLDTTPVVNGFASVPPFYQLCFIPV", "assay": "Inhibition of CYP2C9 (unknown origin)", "assay_type": "ADME"}, "[5]": {"target": "T1, Aminoacyl tRNA synthase complex-interacting multifunctional protein 2 (Homo sapiens, UniProt Q13155)", "T1 sequence (Q13155 whole entry, looked up, one chain of several)": "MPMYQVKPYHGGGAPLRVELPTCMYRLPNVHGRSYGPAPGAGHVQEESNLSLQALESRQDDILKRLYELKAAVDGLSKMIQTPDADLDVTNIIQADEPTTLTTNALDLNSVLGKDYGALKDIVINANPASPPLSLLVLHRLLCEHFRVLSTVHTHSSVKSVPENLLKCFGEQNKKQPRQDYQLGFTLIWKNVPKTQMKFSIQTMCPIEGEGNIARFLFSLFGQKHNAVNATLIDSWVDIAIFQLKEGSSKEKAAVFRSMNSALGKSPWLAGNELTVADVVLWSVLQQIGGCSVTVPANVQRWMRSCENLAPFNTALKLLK", "assay": "Inhibition of AIMP2-DX2 in human A549 cells by nanoluciferase based assay", "assay_type": "cell-based"}, "[6]": {"target": "Cytochrome P450 2C19 (Homo sapiens, UniProt P33261)", "sequence (P33261 whole entry)": "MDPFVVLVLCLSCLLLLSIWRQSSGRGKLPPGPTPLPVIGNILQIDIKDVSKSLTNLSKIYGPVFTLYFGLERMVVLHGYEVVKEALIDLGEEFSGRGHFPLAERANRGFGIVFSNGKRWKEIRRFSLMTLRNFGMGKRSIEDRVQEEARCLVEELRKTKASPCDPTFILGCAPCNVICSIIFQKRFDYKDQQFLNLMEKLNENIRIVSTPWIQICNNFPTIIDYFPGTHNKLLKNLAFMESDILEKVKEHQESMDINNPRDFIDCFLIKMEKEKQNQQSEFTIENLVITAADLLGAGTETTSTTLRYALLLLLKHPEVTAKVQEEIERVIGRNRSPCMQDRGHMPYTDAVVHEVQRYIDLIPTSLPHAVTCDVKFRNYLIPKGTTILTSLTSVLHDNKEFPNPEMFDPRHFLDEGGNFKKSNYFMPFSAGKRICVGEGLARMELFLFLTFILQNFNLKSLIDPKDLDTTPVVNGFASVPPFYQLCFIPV", "assay": "Inhibition of CYP2C19 (unknown origin)", "assay_type": "ADME"}, "[7]": {"assay": "Plasma stability in mouse assessed as compound remaining measured after 2 hrs", "assay_type": "ADME, cell-free", "conditions": "read-out: Stability"}, "[8]": {"target": "Cytochrome P450 3A4 (Homo sapiens, UniProt P08684)", "sequence (P08684 whole entry)": "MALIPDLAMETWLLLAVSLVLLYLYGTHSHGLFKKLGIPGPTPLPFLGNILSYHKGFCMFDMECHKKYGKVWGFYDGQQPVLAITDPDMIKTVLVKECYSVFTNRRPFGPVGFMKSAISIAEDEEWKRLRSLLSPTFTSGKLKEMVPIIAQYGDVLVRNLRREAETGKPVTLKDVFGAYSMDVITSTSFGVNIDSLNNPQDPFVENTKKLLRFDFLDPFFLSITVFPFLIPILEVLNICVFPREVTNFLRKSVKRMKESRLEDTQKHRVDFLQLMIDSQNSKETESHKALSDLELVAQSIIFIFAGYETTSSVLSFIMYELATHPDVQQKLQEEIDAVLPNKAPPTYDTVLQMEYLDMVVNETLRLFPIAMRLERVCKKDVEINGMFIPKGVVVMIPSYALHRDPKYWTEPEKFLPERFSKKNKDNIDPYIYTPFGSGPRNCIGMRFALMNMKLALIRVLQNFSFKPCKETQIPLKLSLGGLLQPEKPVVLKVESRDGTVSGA", "assay": "Inhibition of CYP3A4 (unknown origin)", "assay_type": "ADME"}, "[9]": {"target": "T1, Aminoacyl tRNA synthase complex-interacting multifunctional protein 2", "assay": "Inhibition of AIMP2-DX2 in human A549 cells by luciferase assay", "assay_type": "cell-based"}, "[10]": {"target": "T2, Cytochrome P450 1A2 (Homo sapiens, UniProt P05177)", "T2 sequence (P05177 whole entry)": "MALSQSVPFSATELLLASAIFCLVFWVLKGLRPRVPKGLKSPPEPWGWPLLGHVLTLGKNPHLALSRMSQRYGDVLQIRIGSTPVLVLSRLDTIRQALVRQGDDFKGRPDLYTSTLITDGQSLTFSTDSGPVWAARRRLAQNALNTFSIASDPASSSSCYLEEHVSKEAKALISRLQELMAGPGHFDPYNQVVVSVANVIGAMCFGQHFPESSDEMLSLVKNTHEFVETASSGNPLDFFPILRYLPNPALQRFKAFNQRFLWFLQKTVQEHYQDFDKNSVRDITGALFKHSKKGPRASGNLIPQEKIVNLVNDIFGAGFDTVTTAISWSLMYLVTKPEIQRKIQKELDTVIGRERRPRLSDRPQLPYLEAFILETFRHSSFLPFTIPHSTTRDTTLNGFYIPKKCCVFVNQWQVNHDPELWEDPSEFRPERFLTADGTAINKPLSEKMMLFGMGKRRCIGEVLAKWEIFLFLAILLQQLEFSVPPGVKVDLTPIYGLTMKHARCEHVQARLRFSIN", "assay": "Inhibition of CYP1A2 (unknown origin)", "assay_type": "ADME"}, "[11]": {"assay": "Metabolic stability in mouse assessed as half life", "assay_type": "ADME"}, "[12]": {"target": "Cytochrome P450 2D6 (Homo sapiens, UniProt P10635)", "sequence (P10635 whole entry)": "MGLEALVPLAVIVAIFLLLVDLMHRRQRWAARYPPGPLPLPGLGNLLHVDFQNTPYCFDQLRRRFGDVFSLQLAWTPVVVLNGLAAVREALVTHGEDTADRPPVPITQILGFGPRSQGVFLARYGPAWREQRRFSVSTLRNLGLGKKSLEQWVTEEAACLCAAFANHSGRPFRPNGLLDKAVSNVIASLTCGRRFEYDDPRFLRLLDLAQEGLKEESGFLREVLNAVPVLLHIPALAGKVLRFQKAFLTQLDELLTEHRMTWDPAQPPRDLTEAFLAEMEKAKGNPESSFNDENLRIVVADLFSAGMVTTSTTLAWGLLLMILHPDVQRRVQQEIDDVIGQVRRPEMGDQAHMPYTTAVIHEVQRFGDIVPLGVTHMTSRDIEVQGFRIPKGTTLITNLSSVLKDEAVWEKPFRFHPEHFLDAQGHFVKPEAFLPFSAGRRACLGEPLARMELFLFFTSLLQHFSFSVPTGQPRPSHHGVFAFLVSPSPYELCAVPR", "assay": "Inhibition of CYP2D6 (unknown origin)", "assay_type": "ADME"}, "[13]": {"assay": "Metabolic stability in human assessed as half life", "assay_type": "ADME"}, "[14]": {"assay": "Plasma stability in human assessed as compound remaining measured after 2 hrs", "assay_type": "ADME, cell-free", "conditions": "read-out: Stability"}, "[15]": {"test_system": "A549", "assay": "Inhibition of cell proliferation in human A549 cells", "assay_type": "functional, cell-based"}}}
{"smiles": "Cc1cc2occ(CC(=O)NCC3COc4ccccc4O3)c2cc1C", "note": "(stereo unspecified)", "values": [{"measurement": "Activity", "setting": "[1]", "result": "Non-Toxic"}, {"measurement": "EC50", "setting": "[2]", "result": 1230, "unit": "nM"}, {"measurement": "EC50", "setting": "[3]", "result": 370, "unit": "nM"}]}
{"smiles": "O=C(O)c1cccc(-c2ccc(/C=N/NC(=O)C3COc4ccccc4O3)o2)c1", "note": "(stereo unspecified)", "values": [{"measurement": "IC50", "setting": "[4]", "result": 49500, "unit": "nM"}, {"measurement": "Activity", "setting": "[1]", "result": "Non-Toxic"}, {"measurement": "IC50", "setting": "[5]", "result": 10100, "unit": "nM"}, {"measurement": "IC50", "setting": "[6]", "result": "> 50000", "unit": "nM"}, {"measurement": "remaining at 2 h", "setting": "[7]", "result": 47.3, "unit": "%"}, {"measurement": "IC50", "setting": "[8]", "result": "> 50000", "unit": "nM"}, {"measurement": "IC50", "setting": "[9]", "result": 7380, "unit": "nM"}, {"measurement": "EC50", "setting": "[2]", "result": 12000, "unit": "nM"}, {"measurement": "EC50", "setting": "[3]", "result": 2980, "unit": "nM"}, {"measurement": "IC50", "setting": "[10]", "result": "> 50000", "unit": "nM"}, {"measurement": "half-life", "setting": "[11]", "result": 30.9, "unit": "min"}, {"measurement": "IC50", "setting": "[12]", "result": "> 50000", "unit": "nM"}, {"measurement": "half-life", "setting": "[13]", "result": 49.1, "unit": "min"}, {"measurement": "remaining at 2 h", "setting": "[14]", "result": 69.8, "unit": "%"}]}
{"smiles": "Cc1cc(O)ccc1CC(=O)NCC1COc2ccccc2O1", "note": "(stereo unspecified)", "values": [{"measurement": "Activity", "setting": "[1]", "result": "Non-Toxic"}, {"measurement": "EC50", "setting": "[2]", "result": 1100, "unit": "nM"}, {"measurement": "EC50", "setting": "[3]", "result": 458, "unit": "nM"}]}
{"smiles": "Cc1ccc2c(CC(=O)NCC3COc4ccccc4O3)coc2c1", "note": "(stereo unspecified)", "values": [{"measurement": "IC50", "setting": "[9]", "result": 5680, "unit": "nM"}]}
{"smiles": "Cc1ccc(S(=O)(=O)N[C@@H](CC(C)C)C(=O)N2CCCOCCOCCOCC2)cc1", "values": [{"measurement": "IC50", "setting": "[15]", "result": 40100, "unit": "nM"}]}
{"smiles": "CCc1ccc(CC(=O)NCC2COc3ccccc3O2)cc1", "note": "(stereo unspecified)", "values": [{"measurement": "IC50", "setting": "[4]", "result": 3460, "unit": "nM"}, {"measurement": "Activity", "setting": "[1]", "result": "Non-Toxic"}, {"measurement": "IC50", "setting": "[6]", "result": 461, "unit": "nM"}, {"measurement": "remaining at 2 h", "setting": "[7]", "result": 94.2, "unit": "%"}, {"measurement": "IC50", "setting": "[8]", "result": 36200, "unit": "nM"}, {"measurement": "EC50", "setting": "[2]", "result": 688, "unit": "nM"}, {"measurement": "EC50", "setting": "[3]", "result": 204, "unit": "nM"}, {"measurement": "IC50", "setting": "[10]", "result": 417, "unit": "nM"}, {"measurement": "half-life", "setting": "[11]", "result": 0.7, "unit": "min"}, {"measurement": "IC50", "setting": "[12]", "result": 29200, "unit": "nM"}, {"measurement": "half-life", "setting": "[13]", "result": 2.7, "unit": "min"}, {"measurement": "remaining at 2 h", "setting": "[14]", "result": 97, "unit": "%"}]}
{"smiles": "O=C(Cc1ccc(-c2ccccc2)cc1)NCC1COc2ccccc2O1", "note": "(stereo unspecified)", "values": [{"measurement": "IC50", "setting": "[4]", "result": 559, "unit": "nM"}, {"measurement": "Activity", "setting": "[1]", "result": "Non-Toxic"}, {"measurement": "IC50", "setting": "[6]", "result": 228, "unit": "nM"}, {"measurement": "remaining at 2 h", "setting": "[7]", "result": 108, "unit": "%"}, {"measurement": "IC50", "setting": "[8]", "result": "> 50000", "unit": "nM"}, {"measurement": "EC50", "setting": "[2]", "result": 690, "unit": "nM"}, {"measurement": "EC50", "setting": "[3]", "result": 150, "unit": "nM"}, {"measurement": "IC50", "setting": "[10]", "result": 1640, "unit": "nM"}, {"measurement": "half-life", "setting": "[11]", "result": 1.6, "unit": "min"}, {"measurement": "IC50", "setting": "[12]", "result": 12300, "unit": "nM"}, {"measurement": "half-life", "setting": "[13]", "result": "< 2.5", "unit": "min"}, {"measurement": "remaining at 2 h", "setting": "[14]", "result": 98.7, "unit": "%"}]}
